Data taken from patent US6737383B1, “Herbicidal oxadiazolidines” (priority 1999, dated 2004).

Assays:
wheat = assay: Test B pre/postemergence wheat; format: in vivo, Triticum aestivum
Outline: (§1)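 Herbicidal effect was estimated by eye on a ten-point control scale after plants spent twelve to sixteen days in a greenhouse following soil or foliar treatment. Foliar sprays targeted plants at one to four leaves; all doses were formulated in a non-phytotoxic solvent with surfactant.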

bedstraw = assay: Test B pre/postemergence bedstraw; format: in vivo, Galium aparine
Outline: as §1

sugar beet = assay: Test B pre/postemergence sugar beet; format: in vivo, Beta vulgaris
Outline: as §1

crabgrass = assay: Test B pre/postemergence crabgrass; format: in vivo, Digitaria sanguinalis
Outline: as §1

corn = assay: Test B pre/postemergence corn; format: in vivo, Zea mays
Outline: as §1

rape = assay: Test B pre/postemergence rape; format: in vivo, Brassica napus
Outline: as §1

purple nutsedge = assay: Test B pre/postemergence purple nutsedge; format: in vivo, Cyperus rotundus
Outline: as §1

surinam grass = assay: Test B pre/postemergence surinam grass; format: in vivo, Brachiaria decumbens; details: Postemergence
Outline: as §1

pigweed = assay: Test B pre/postemergence pigweed; format: in vivo, Amaranthus retroflexus
Outline: as §1

velvetleaf = assay: Test B pre/postemergence velvetleaf; format: in vivo, Abutilon theophrasti
Outline: as §1

morningglory = assay: Test B pre/postemergence morningglory; format: in vivo, Ipomoea hederacea
Outline: as §1

blackgrass = assay: Test B pre/postemergence blackgrass; format: in vivo, Alopecurus myosuroides
Outline: as §1

wild oat = assay: Test B pre/postemergence wild oat; format: in vivo, Avena fatua
Outline: as §1

soybean = assay: Test B pre/postemergence soybean; format: in vivo, Glycine max
Outline: as §1

giant foxtail = assay: Test B pre/postemergence giant foxtail; format: in vivo, Setaria faberii
Outline: as §1

cocklebur = assay: Test B pre/postemergence cocklebur; format: in vivo, Xanthium strumarium
Outline: as §1

[1] = Postemergence, Rate 500 g/ha, scale 0 (no effect) to 10 (complete control)
[2] = Rate 125 g/ha, Preemergence, scale 0 to 10 (0 no effect, 10 complete control)
[3] = Rate 250 g/ha, Postemergence, scale 0 to 10, 0 is no effect, 10 is complete control
[4] = Rate 500 g/ha, Preemergence, scale 0 to 10 (0 no effect, 10 complete control)
[5] = Rate 1000 g/ha, Preemergence, scale 0 to 10 (0 no effect, 10 complete control)
[6] = Postemergence, Rate 125 g/ha, scale of 0 to 10 where 0 is no effect and 10 is complete control
[7] = Postemergence, Rate 1000 g/ha, scale 0 to 10 (0 no effect, 10 complete control)
[8] = Preemergence, Rate 250 g/ha, scale 0 (no effect) to 10 (complete control)

Compound: COC(=O)N(C)CCn1c(=O)on(C(=O)N(c2ccccc2)C(C)C)c1=O [Compound 775]
- Wheat plant response rating (wheat; [1]): 0
- Wheat plant response rating (wheat; [2]): 0
- Wheat plant response rating (wheat; [3]): 0
- Wheat plant response rating (wheat; [4]): 8
- Plant response rating, Wheat (wheat; [5]): 9
- Bedstraw plant response rating (bedstraw; [6]): 0
- Bedstraw plant response rating (bedstraw; [1]): 7
- Bedstraw plant response rating (bedstraw; [7]): 7
- Bedstraw plant response rating (bedstraw; [8]): 0
- Bedstraw plant response rating (bedstraw; [2]): 0
- Bedstraw plant response rating (bedstraw; [3]): 2
- Bedstraw plant response rating (bedstraw; [4]): 2
- Plant response rating, Bedstraw (bedstraw; [5]): 2
- Sugarbeets plant response rating (sugar beet; [1]): 0
- Sugarbeets plant response rating (sugar beet; [2]): 0
- Sugarbeets plant response rating (sugar beet; [3]): 0
- Sugarbeets plant response rating (sugar beet; [4]): 3
- Plant response rating, Sugarbeets (sugar beet; [5]): 3
- Crabgrass plant response rating (crabgrass; [6]): 3
- Crabgrass plant response rating (crabgrass; [1]): 9
- Crabgrass plant response rating (crabgrass; [7]): 9
- Crabgrass plant response rating (crabgrass; [8]): 9
- Crabgrass plant response rating (crabgrass; [2]): 9
- Crabgrass plant response rating (crabgrass; [3]): 7
- Crabgrass plant response rating (crabgrass; [4]): 10
- Plant response rating, Crabgrass (crabgrass; [5]): 10
- Corn plant response rating (corn; [6]): 0
- Corn plant response rating (corn; [1]): 0
- Corn plant response rating (corn; [7]): 0
- Corn plant response rating (corn; [8]): 0
- Corn plant response rating (corn; [2]): 0
- Corn plant response rating (corn; [3]): 0
- Corn plant response rating (corn; [4]): 3
- Plant response rating, Corn (corn; [5]): 4
- Rape plant response rating (rape; [6]): 0
- Rape plant response rating (rape; [1]): 0
- Rape plant response rating (rape; [7]): 0
- Rape plant response rating (rape; [2]): 0
- Rape plant response rating (rape; [3]): 0
- Rape plant response rating (rape; [4]): 0
- Plant response rating, Rape (rape; [5]): 7
- Nutsedge plant response rating (purple nutsedge; [6]): 0
- Nutsedge plant response rating (purple nutsedge; [7]): 0
- Nutsedge plant response rating (purple nutsedge; [2]): 0
- Nutsedge plant response rating (purple nutsedge; [3]): 0
- Nutsedge plant response rating (purple nutsedge; [4]): 0
- Plant response rating, Nutsedge (purple nutsedge; [5]): 9
- B. signalgrass plant response rating (surinam grass; Rate 125 g/ha, scale of 0 to 10 where 0 is no effect and 10 is complete control): 2
- B. signalgrass plant response rating (surinam grass; Rate 1000 g/ha, scale 0 to 10 (0 no effect, 10 complete control)): 9
- B. signalgrass plant response rating (surinam grass; Rate 250 g/ha, scale 0 to 10, 0 is no effect, 10 is complete control): 3
- B. signalgrass plant response rating (surinam grass; Rate 500 g/ha, scale 0 to 10, 0 is no effect, 10 is complete control): 3
- Redroot pigweed plant response rating (pigweed; [6]): 3
- Redroot pigweed plant response rating (pigweed; [1]): 3
- Redroot pigweed plant response rating (pigweed; [7]): 6
- Redroot pigweed plant response rating (pigweed; [2]): 0
- Redroot pigweed plant response rating (pigweed; [3]): 3
- Redroot pigweed plant response rating (pigweed; [4]): 9
- Plant response rating, Redroot pigweed (pigweed; [5]): 10
- Velvetleaf plant response rating (velvetleaf; [1]): 2
- Velvetleaf plant response rating (velvetleaf; [2]): 0
- Velvetleaf plant response rating (velvetleaf; [3]): 2
- Velvetleaf plant response rating (velvetleaf; [4]): 0
- Plant response rating, Velvetleaf (velvetleaf; [5]): 4
- Morningglory plant response rating (morningglory; [6]): 5
- Morningglory plant response rating (morningglory; [1]): 6
- Morningglory plant response rating (morningglory; [7]): 8
- Morningglory plant response rating (morningglory; [2]): 0
- Morningglory plant response rating (morningglory; [3]): 6
- Morningglory plant response rating (morningglory; [4]): 2
- Plant response rating, Morningglory (morningglory; [5]): 5
- Blackgrass plant response rating (blackgrass; [6]): 0
- Blackgrass plant response rating (blackgrass; [1]): 7
- Blackgrass plant response rating (blackgrass; [7]): 4
- Blackgrass plant response rating (blackgrass; [8]): 9
- Blackgrass plant response rating (blackgrass; [2]): 5
- Blackgrass plant response rating (blackgrass; [3]): 4
- Blackgrass plant response rating (blackgrass; [4]): 10
- Plant response rating, Blackgrass (blackgrass; [5]): 10
- Wild oats plant response rating (wild oat; [1]): 0
- Wild oats plant response rating (wild oat; [2]): 2
- Wild oats plant response rating (wild oat; [3]): 0
- Wild oats plant response rating (wild oat; [4]): 8
- Plant response rating, Wild oats (wild oat; [5]): 9
- Soybean plant response rating (soybean; [1]): 6
- Soybean plant response rating (soybean; [2]): 0
- Soybean plant response rating (soybean; [3]): 6
- Soybean plant response rating (soybean; [4]): 1
- Plant response rating, Soybean (soybean; [5]): 2
- Giant foxtail plant response rating (giant foxtail; [6]): 7
- Giant foxtail plant response rating (giant foxtail; [1]): 9
- Giant foxtail plant response rating (giant foxtail; [7]): 9
- Giant foxtail plant response rating (giant foxtail; [8]): 10
- Giant foxtail plant response rating (giant foxtail; [2]): 9
- Giant foxtail plant response rating (giant foxtail; [3]): 7
- Giant foxtail plant response rating (giant foxtail; [4]): 10
- Plant response rating, Giant foxtail (giant foxtail; [5]): 10
- Cocklebur plant response rating (cocklebur; [6]): 0
- Cocklebur plant response rating (cocklebur; [1]): 0
- Cocklebur plant response rating (cocklebur; [7]): 0
- Cocklebur plant response rating (cocklebur; [8]): 0
- Cocklebur plant response rating (cocklebur; [2]): 0
- Cocklebur plant response rating (cocklebur; [3]): 0
- Cocklebur plant response rating (cocklebur; [4]): 0
- Plant response rating, Cocklebur (cocklebur; [5]): 0
